From patent US20230107941A1, “HEPATITIS B CAPSID ASSEMBLY MODULATORS” (Venatorx Pharmaceuticals, Inc., priority 2019, published 2023) come the findings set out here.

pEC50: −log10 of the molar value. Where only a bound is given, the exact number is not on record here.

Data set [1] relates to HBV. Put plainly: In vitro antiviral assay: anti-HBV replication in HepAD38 cells (extracellular HBV DNA by QPCR). Format: cell-based, hepatitis B virus (genotype D, serotype ayw). To be noted: Hepatitis B virus, HePAD38, 168 h, 7 days incubation, extracellular HBV DNA by QPCR, read-out: Anti-HBV EC50. The method, then: The anti-HBV activity of the Capsid Assembly Modulators (CAMs) was evaluated in a cell based assay utilizing the human hepatoma cell line HepAD38 (Ladner, S K., et al., 1998). HepAD38 cells were derived from the parental line, HepG2, that were stably transfected with a construct containing an HBV genome (genotype D, serotype ayw) under the control of a tetracycline repressible CMV promoter. Upon removal of tetracycline, viral pre-genomic RNA (pgRNA) and mRNAs are expressed and infectious viral particles are assembled and secreted into the culture medium providing a reliable, robust system to measure multiple steps of the HBV life cycle. Disruption of capsid formation results in reduced levels of DNA-containing virus particles that are released into the culture supernatant. To quantify the effect of CAMs on HBV replication, we developed a sensitive QPCR-based assay that measures extracellular HBV DNA levels upon treatment of HepAD38 cells with various concentrations of test compounds.
HepAD38 cells were maintained in DMEM/F12 medium containing 10% FBS, 400 μg/mL G418 and 0.3 μg/mL tetracycline (tet+ media) to maintain repression of HBV replication. To evaluate each compound, HepAD38 cells were seeded into 24-well collagen coated culture plates (Corning BioCoat) at a density of 200,000 cells per well in 1 mL of medium without tetracycline (tet-media) and allowed to adhere overnight at 37° C., 5% CO2 in a humidified incubator. The following day, media was refreshed and a dose range of each compound was prepared by performing 1 log10 serial dilutions in 100% DMSO at 200× the desired assay concentration. Dilutions were then added to the cells resulting in a final dose range of 1 μM to 10 pM and the plates were returned to the incubator. Following 7 days of incubation, culture supernatants were harvested and HBV DNA levels were evaluated by QPCR and compared to the vehicle treated control wells (i.e. DMSO alone).
To quantify HBV DNA levels, cell culture supernatants were diluted 1:10 in sterile, nuclease-free water (Gibco). The diluted supernatants were subsequently added to a PCR master mix containing 1× Roche Light Cycler Master Mix, 0.5 μM forward primer, 0.5 μM reverse primer (Fwd: 5′-[…] (SEQ ID NO 1); Rev: 5′-[…] (SEQ ID NO 2)), 0.2 μM Roche Universal Probe Library Probe 25. The volume was brought to 20 μL with nuclease-free water and amplification of the HBV target sequence was performed using a Roche LightCycler 480 QPCR instrument. PCR extended out to 45 cycles with each cycle consisting of a denaturation step at 95° C. for 10 sec., followed by an annealing step at 60° C. for 10 sec. and a brief extension step at 72° C. for 1 sec.
Extracellular HBV DNA levels, expressed in copies/mL, were determined by comparison to a standard curve (10^2-10^9 copies/mL) using the Roche LightCycler analysis software. These values were subsequently converted to percent inhibition of HBV replication by dividing the HBV DNA levels in the experimental samples with those obtained from the vehicle control (˜1-2×10^5 copies/mL). Potency, expressed as an EC50 (the effective concentration required to inhibit 50% of HBV replication), was calculated from the dose-response curve using a 4-parameter non-linear regression analysis (GraphPad Prism). The nucleoside analog inhibitor entecavir was used as a positive control to validate each assay run. The EC50 value of entecavir in the HepAD38 assay was 0.5 nM, as previously reported in the literature.

A short description of data set [2]: In vitro cytotoxicity assay (MTT cell viability) in HepG2 cells. Format: cell-based, human. To be noted: human. The method, then: To evaluate antiviral selectivity, the cytotoxic activity of each compound was determined using a standard cell viability assay performed on the parental HepG2 cell line. Cell viability was determined by measuring the conversion of 3-(4,5-dimethylthiazol-2-yl)-2,5-diphenyltetrazolium bromide (MTT) to the insoluble formazan salt crystal that occurs in live cells. Briefly, HepG2 cells were seeded in 96-well plates at a density of 20,000 cells per well in […] (complete growth medium) and allowed to adhere overnight in a 37° C., […] humidified incubator. The next day, test agents were prepared by performing 8 half-log10 serial dilutions in 100% DMSO at 200× the final desired concentration in the assay. Compounds were tested over a range of concentrations from 30 μM to 1.0 nM in the assay. HepG2 cells were incubated in the presence of various concentrations of CAMs for 7 days in a 37° C., […] humidified incubator. At the completion of the 7-day incubation period, MTT reagent was added to each well and the mixture was incubated for an additional 3-4 hours. At the completion of the incubation period, all wells were aspirated to remove the culture medium. The formazan crystals were solubilized from the cell monolayers with 100% DMSO. Plates were briefly mixed on an orbital shaker and absorbance was measured at 492 nm using a Perkin-Elmer EnVision multi-label plate reader. All absorbance values were converted to a percentage of the signal obtained from the vehicle treated controls. Absorbance values at 492 nm are directly proportional to the number of viable cells present in the sample. A CC50 value (cytotoxic concentration that results in loss of 50% cell viability) was calculated from the dose-response curve by 4-parameter, non-linear regression analysis using the GraphPad Prism software. The positive control compound, staurosporine, reduced the viability of HepG2 cells in a dose-dependent manner (CC50=100 nM).

By pEC50 is commonly meant the negative decadic logarithm of the EC50, by convention in mol/L. As a reminder, the CC50 is the concentration that lowers cell viability or growth by half. A high value points to lower toxicity to the cells. Take `Cc1c(C(=O)NC23CCC(O)(CC2)CC3)c(C)n(C)c1C(=O)C(=O)Nc1cccnc1` [Example 29, N-(4-hydroxybicyclo[2.2.2]octan-1-yl)-1,2,4-trimethyl-5-(2-oxo-2-(pyridin-3-ylamino)acetyl)-1H-pyrrole-3-carboxamide]: the pEC50 in data set [1] is below 6.00. This compound yielded a CC50 at 7 days in data set [2] above 30 µM.
Turning to `Cc1cc(NC(=O)c2c(C)c(C(=O)C(=O)N[C@H]3CC[C@@H](O)CC3)n(C)c2C(C)C)ccc1F` [Example 112, N-(4-fluoro-3-methylphenyl)-5-(2-(((1s,4s)-4-hydroxycyclohexyl)amino)-2-oxoacetyl)-2-isopropyl-1,4-dimethyl-1H-pyrrole-3-carboxamide], the negative logarithm of the EC50 (pEC50) in data set [1] was 6.30 to 7.30. The compound further yielded a CC50 at 7 days in data set [2] above 30 µM.
Turning to `Cc1cc(NC(=O)c2c(C)c(C(=O)C(=O)NC3(C)CNC(=O)C34CC4)n(C)c2C)ccc1F` (centres unmarked) [Example 81, N-(4-fluoro-3-methylphenyl)-1,2,4-trimethyl-5-(2-((7-methyl-4-oxo-5-azaspiro[2.4]heptan-7-yl)amino)-2-oxoacetyl)-1H-pyrrole-3-carboxamide], in data set [1], the pEC50 is above 7.30. This compound also showed a CC50 at 7 days in data set [2] above 30 µM.
With `Cc1cc(NC(=O)c2c(C)c(C(=O)C(=O)N[C@]3(C)CC[C@H](O)CC3)n(C)c2-c2cccnc2)ccc1F` [Example 152, N-(4-fluoro-3-methylphenyl)-5-(2-(((1s,4s)-4-hydroxy-1-methylcyclohexyl)amino)-2-oxoacetyl)-1,4-dimethyl-2-(pyridin-3-yl)-1H-pyrrole-3-carboxamide], the pEC50 in data set [1] is below 6.00. Moreover, the CC50 at 7 days in data set [2] was above 30 µM.
For `CCC1(NC(=O)C(=O)c2c(C)c(C(=O)Nc3ccc(F)c(C)c3)c(C)n2C)CCN(c2cccnn2)CC1` [Example 44, 5-(2-((4-ethyl-1-(pyridazin-3-yl)piperidin-4-yl)amino)-2-oxoacetyl)-N-(4-fluoro-3-methylphenyl)-1,2,4-trimethyl-1H-pyrrole-3-carboxamide], the pEC50 in data set [1] was above 7.30. The compound also had a half-maximal cytotoxic concentration (CC50) at 7 days in data set [2] above 30 µM.
For `Cc1cc(NC(=O)c2c(C)c(C(=O)C(=O)NC3CCCN(CC(=O)O)C3)n(C)c2C)ccc1F` (centres unmarked) [Example 172, 2-(3-(2-(4-((4-fluoro-3-methylphenyl)carbamoyl)-1,3,5-trimethyl-1H-pyrrol-2-yl)-2-oxoacetamido)piperidin-1-yl)acetic acid], the pEC50 in data set [1] was below 6.00. The same compound gave a CC50 at 7 days in data set [2] above 30 µM.
As for `Cc1c(C(=O)Nc2cc(Cl)nc(Cl)c2)c(C)n(C)c1C(=O)C(=O)N[C@H](C)C(F)(F)F` [Example 51, (R)-N-(2,6-dichloropyridin-4-yl)-1,2,4-trimethyl-5-(2-oxo-2-((1,1,1-trifluoropropan-2-yl)amino)acetyl)-1H-pyrrole-3-carboxamide], in data set [1], the pEC50 was above 7.30. In data set [2], this compound showed a CC50 at 7 days above 30 µM.
The corresponding values for `Cc1c(C(=O)Nc2ccc(F)c(C#N)c2)c(C)n(C)c1C(=O)C(=O)Nc1cccc(B(O)O)c1` [Example 141, (3-(2-(4-((3-cyano-4-fluorophenyl)carbamoyl)-1,3,5-trimethyl-1H-pyrrol-2-yl)-2-oxoacetamido)phenyl)boronic acid] are 6.30 to 7.30 and above 30 µM.
Take `CCC1(NC(=O)C(=O)c2c(C)c(C(=O)Nc3ccc(F)c(C)c3)c(C)n2C)CCN(C(=O)c2cn(C)nc2C(F)F)CC1` [Example 40, 5-(2-((1-(3-(difluoromethyl)-1-methyl-1H-pyrazole-4-carbonyl)-4-ethylpiperidin-4-yl)amino)-2-oxoacetyl)-N-(4-fluoro-3-methylphenyl)-1,2,4-trimethyl-1H-pyrrole-3-carboxamide]: in data set [1], the pEC50 was above 7.30. In data set [2], this compound returned a CC50 at 7 days above 30 µM.
With `Cc1cc(NC(=O)c2c(C)c(C(=O)C(=O)NC3C[C@@H]4CC(O)[C@H]3C4)n(C)c2C)ccc1F` (stereo partly drawn) [Example 24, N-(4-fluoro-3-methylphenyl)-5-(2-(((1S,4R)-6-hydroxybicyclo[2.2.1]heptan-2-yl)amino)-2-oxoacetyl)-1,2,4-trimethyl-1H-pyrrole-3-carboxamide], in data set [1], the pEC50 is above 7.30. In data set [2], this compound yielded a half-maximal cytotoxic concentration (CC50) at 7 days above 30 µM.
As for `Cc1cc(NC(=O)c2c(C(C)C)c(C(=O)C(=O)N[C@H]3CC[C@@H](S(C)(=O)=O)CC3)n(C)c2C)ccc1F` [Example 95, N-(4-fluoro-3-methylphenyl)-4-isopropyl-1,2-dimethyl-5-(2-(((1s,4s)-4-(methylsulfonyl)cyclohexyl)amino)-2-oxoacetyl)-1H-pyrrole-3-carboxamide], the pEC50 in data set [1] is below 6.00. The compound further showed a cytotoxic concentration (CC50) at 7 days in data set [2] above 30 µM.
In the case of `Cc1c(C(=O)Nc2ccc(F)c(-c3nc[nH]n3)c2)c(C)n(C)c1C(=O)C(=O)NC(C)(C)C` [Example 139, 5-(2-(tert-butylamino)-2-oxoacetyl)-N-(4-fluoro-3-(1H-1,2,4-triazol-3-yl)phenyl)-1,2,4-trimethyl-1H-pyrrole-3-carboxamide], the pEC50 in data set [1] is below 6.00. In addition, the CC50 at 7 days in data set [2] is above 30 µM.
Consider `Cc1cc(NC(=O)c2c(C)c(C(=O)C(=O)N[C@@H]3CC[C@H](O)C[C@@H]3F)n(C)c2C)ccc1F` [Example 122, N-(4-fluoro-3-methylphenyl)-5-(2-(((1R,2S,4S)-2-fluoro-4-hydroxycyclohexyl)amino)-2-oxoacetyl)-1,2,4-trimethyl-1H-pyrrole-3-carboxamide], for which, in data set [1], the pEC50 is above 7.30. In data set [2], this compound had a half-maximal cytotoxic concentration (CC50) at 7 days of 5 to 30 µM.
With `Cc1cc(NC(=O)c2c(C)c(C(=O)C(=O)N[C@H]3CC[C@@H](S(C)(=O)=O)CC3)n(C)c2C2CCCC2)ccc1F` [Example 131, 2-cyclopentyl-N-(4-fluoro-3-methylphenyl)-1,4-dimethyl-5-(2-(((1s,4s)-4-(methylsulfonyl)cyclohexyl)amino)-2-oxoacetyl)-1H-pyrrole-3-carboxamide], the pEC50 in data set [1] is below 6.00. The compound also registered a CC50 at 7 days in data set [2] of 5 to 30 µM.
For the compound `CCc1c(C(=O)Nc2ccc(F)c(C)c2)c(C)c(C(=O)C(=O)N[C@H]2CC[C@@H](O)CC2)n1C` [Example 108, 2-ethyl-N-(4-fluoro-3-methylphenyl)-5-(2-(((1s,4s)-4-hydroxycyclohexyl)amino)-2-oxoacetyl)-1,4-dimethyl-1H-pyrrole-3-carboxamide], the pEC50 in data set [1] was above 7.30. The compound also gave a cytotoxic concentration (CC50) at 7 days in data set [2] of 5 to 30 µM.
For `CCc1c(C(=O)Nc2ccc(F)c(C)c2)c(C)n(C)c1C(=O)C(=O)N[C@]1(C)C[C@H](O)C1` [Example 87, 4-ethyl-N-(4-fluoro-3-methylphenyl)-5-(2-(((1s,3s)-3-hydroxy-1-methylcyclobutyl)amino)-2-oxoacetyl)-1,2-dimethyl-1H-pyrrole-3-carboxamide], in data set [1], the negative logarithm of the EC50 (pEC50) was above 7.30. The same compound came in with a half-maximal cytotoxic concentration (CC50) at 7 days in data set [2] above 30 µM.
